Test results published in patent US20250236616A1, “IMMUNOMODULATING AZALIDES” (Zoetis Services LLC, priority 2021, published 2025).
Read-outs that look alike come from different tables or passages of the source. Marks after values point to notes of the source that are not given here.

Legend:
Type in all cases: cell-based
[1] = test system: BRD pathogens, M. haemolytica and P. multocida; experiment: MIC screening panel, BRD pathogens (CLSI broth micro-dilution)
Description: Primary screening of the compounds of the invention included the evaluation of antibacterial activity of analogs through determination of microbial inhibition concentration (MIC) as per CLSI guidelines. The screening panel included the relevant BRD pathogens: 1) M. haemolytica (e.g., 12726, 46571 and 49023, all AHDRCC; and 33396 (ATCC)); and 2) P. multocida (e.g., 34135 and 46572 (both AHDRCC) and 43137 (ATCC)). In some instances, H. somni (A700025K) pathogens were also included in the screening panel. The AHDRCC strains originated from the Zoetis BRD/SRD surveillance program and refer to the Animal Health Development and Research Culture Collection. In addition, the screen assessed S. aureus (29213 ATCC) as a representative Gram-positive isolate, E.faecalis (19433 ATCC) as a commensal gram-positive gastrointestinal bacterium and E. coli (100, 3110 and 25922 (ATCC)) for the evaluation of efflux potential. The screening panel BRD pathogens were assessed in determining antibacterial activity of the Formula (1) compounds.
All relevant BRD pathogens were initially screened at a top concentration of 64 μg/mL of a Formula (1) compound in an eleven-point dilution series. […] If an Example was purified further, the MICs moved […] essentially two dilutions across all strains tested in the screening panel.
In-Vitro MIC Model Compounds were analyzed for antibacterial activity against a panel of animal health specific gram-positive and gram-negative clinical strains by diluting compounds in DMSO to an appropriate stock concentration to determine the Minimal Inhibitory Concentration (MIC) via a semi-automated broth micro-dilution method (CLSI reference method) with QC strains and anti-microbial agent(s). Specifically, bacteria were grown overnight on TSA w/5% sheep blood agar plates and diluted in saline buffer to a McFarland Standard 0.5, then further diluted in cation-ion adjusted Mueller Hinton Broth to a final concentration of approximately 5×10^5 CFU/mL. 100 μL of inoculated media was added to 96-well plate(s) with 3 μL of serially diluted compound in each row. Depending on strain (see CLSI reference method), bacteria were incubated 18-22 hours at 35-37° C. in ambient air, with 5% CO2 or anaerobically (up to 48 hours).

TNF-α = experiment: Whole bovine blood assay, LPS-induced TNF-α; conditions: fresh whole bovine blood, LPS stimulant; top drug concentration 250 μM
Method in brief: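 Fresh heparinized bovine whole blood was preincubated with compound 4 h at 37 °C, then stimulated with LPS (final 1 μg/mL) for 18 h at 37 °C. Plasma TNF-α was quantified by MSD U-Plex chemiluminescent immunoassay, normalized to total protein (BCA), and IC50 taken for LPS-induced TNF-α inhibition.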

IL-1β = experiment: Whole bovine blood assay, LPS-induced IL-1β (inhibition / overstimulation); conditions: drug concentration giving overstimulation (OS) of LPS-induced IL-1β, top concentration 250 μM
Method in brief: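 Fresh heparinized bovine whole blood was preincubated with compound at varying concentrations for 4 h at 37 °C, then stimulated with 1 μg/mL LPS for 18 h. Plasma IL-1β was measured by MSD chemiluminescent immunoassay and normalized to total protein. Values cover inhibition and concentration-dependent overstimulation.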

IL-6 = experiment: Whole bovine blood assay, LPS-induced IL-6; conditions: fresh whole bovine blood, LPS stimulant; top drug concentration 250 μM
[2] = Table B, at least one BRD pathogenic strain, top concentration 64 μg/mL, read-out: MIC flag (*) for BRD pathogenic strains
[3] = Table B, at least one BRD pathogenic strain, top concentration 64 μg/mL

| Molecule | IC50 (TNF-α) [µM] | minimal effective concentration (IL-1β) [µM] | IC50 (IL-6) [µM] | further results |
| --- | --- | --- | --- | --- |
| CCCNC[C@]1(O)[C@H](C)O[C@@H](O[C@H]2[C@H](C)[C@@H](O[C@@H]3O[C@H](C)C[C@H](N(C)S(=O)(=O)c4ccccc4)[C@H]3Oc3ccc(F)cc3)[C@](C)(O)C[C@@H](C)CN(CC)[C@H](C)[C@@H](O)[C@](C)(O)[C@@H](CC)OC(=O)[C@@H]2C)C[C@@]1(C)OC [Example B-161, N-((2S,3R,4S,6R)-2-(((2R,3S,4R,5R,8R,10R,11R,12S,13S,14R)-2,6-diethyl-3,4,10-trihydroxy-13-(((2R,4R,5S,6S)-5-hydroxy-4-methoxy-4,6-dimethyl-5-((propylamino)methyl)tetrahydro-2H-pyran-2-yl)oxy)-3,5,8,10,12,14-hexamethyl-15-oxo-1-oxa-6-azacyclopentadecan-11-yl)oxy)-3-(4-fluorophenoxy)-6-methyltetrahydro-2H-pyran-4-yl)-N-methylbenzenesulfonamide] |  |  |  | MIC [1, 2]: ≤ 64 µg/mL |
| CCCNC[C@]1(O)[C@H](C)O[C@@H](O[C@H]2[C@H](C)[C@@H](O[C@@H]3O[C@H](C)C[C@H](N(C)S(=O)(=O)NCCc4ccccc4)[C@H]3O)[C@](C)(O)C[C@@H](C)CN[C@H](C)[C@@H](O)[C@](C)(O)[C@@H](CC)OC(=O)[C@@H]2C)C[C@@]1(C)OC [Example B-40, (2R,3S,4R,5R,8R,10R,11R,12S,13S,14R)-2-ethyl-3,4,10-trihydroxy-13-[(2R,4R,5S,6S)-5-hydroxy-4-methoxy-4,6-dimethyl-5-(propylaminomethyl)oxan-2-yl]oxy-11-[(2S,3R,4S,6R)-3-hydroxy-6-methyl-4-[methyl (2-phenylethylsulfamoyl)amino]oxan-2-yl]oxy-3,5,8,10,12,14-hexamethyl-15-oxo-1-oxa-6-azacyclopentadecane] |  |  |  | MIC [1, 2]: ≤ 64 µg/mL |
| CC[C@H]1OC(=O)[C@H](C)[C@@H](O[C@H]2C[C@@](C)(OC)[C@](O)(CC#N)[C@H](C)O2)[C@H](C)[C@@H](O[C@@H]2O[C@H](C)C[C@H](N(C)S(=O)(=O)c3ccc(Cl)cc3)[C@H]2O)[C@](C)(O)C[C@@H](C)CN[C@H](C)[C@@H](O)[C@]1(C)O [Example A6-1, 4-chloro-N-((2S,3R,4S,6R)-2-(((2R,3S,4R,5R,8R,10R,11R,12S,13S,14R)-13-(((2R,4R,5S,6S)-5-(cyanomethyl)-5-hydroxy-4-methoxy-4,6-dimethyltetrahydro-2H-pyran-2-yl)oxy)-2-ethyl-3,4,10-trihydroxy-3,5,8,10,12,14-hexamethyl-15-oxo-1-oxa-6-azacyclopentadecan-11-yl)oxy)-3-hydroxy-6-methyltetrahydro-2H-pyran-4-yl)-N-methylbenzenesulfonamide] |  |  |  | MIC ([1]; BRD pathogens M. haemolytica and P. multocida, read-out: antibacterial / non-antibacterial (MIC class)): > 64 µg/mL |
| CCCNC[C@]1(O)[C@H](C)OC(O[C@H]2[C@H](C)[C@@H](O[C@@H]3O[C@H](C)C[C@H](N(C)S(=O)(=O)c4c(C)noc4C)[C@H]3Oc3ccc(OC)cc3)[C@](C)(O)C[C@@H](C)CN[C@H](C)[C@@H](O)[C@](C)(O)[C@@H](CC)OC(=O)[C@@H]2C)C[C@@]1(C)OC (some centres unmarked) [Example B-116] |  |  |  | MIC flag (*) for BRD pathogenic strains [1, 3]: B-116* (MIC ≤64 μg/mL for at least one BRD pathogenic strain) |
| (2R,3S,4R,5R,8R,10R,11R,12S,13S,14R)-2-ethyl-3,4,10-trihydroxy-13-[(2R,4R,5S,6S)-5-hydroxy-4-methoxy-4,6-dimethyl-5-(propylaminomethyl) oxan-2-yl]oxy-11-[(2S,3R,4S,6R)-3-hydroxy-6-methyl-4-[methyl-[[4-(trifluoromethyl)phenyl]sulfamoyl]-amino]oxan-2-yl]oxy-3,5,6,8,10,12,14-heptamethyl-15-oxo-1-oxa-6-azacyclopentadecane [Example B-159] | 4 |  |  | MIC flag (*) for BRD pathogenic strains [1, 3]: B-159* (MIC ≤64 μg/mL for at least one BRD pathogenic strain) |
| (2R,3S,4R,5R,8R,10R,11R, 12S, 13S, 14R)-11-[(2R,3S,4R,6S)-4-[[3-(dimethylamino)phenyl]sulfamoyl-methylamino]-3-hydroxy-6-methyloxan-2-yl]oxy-2-ethyl-3,4,10-trihydroxy-13-[(2R,4R,5S,6S)-5-hydroxy-4-methoxy-4,6-dimethyl-5-(piperidin-1-ylmethyl) oxan-2-yl]oxy-3,5,8,10, 12, 14-hexamethyl-15-oxo-1-oxa-6-azacyclopentadecane [Example C-25] | 37 |  |  | MIC flag (*) for BRD pathogenic strains ([1]; Table C, at least one BRD pathogenic strain, top concentration 64 μg/mL): C-25* (MIC ≤64 μg/mL for at least one BRD pathogenic strain) |
| CCCNC[C@]1(O)[C@H](C)O[C@@H](O[C@H]2[C@H](C)[C@@H](O[C@@H]3O[C@H](C)C[C@H](N(C)S(=O)(=O)c4nccn4C)[C@H]3Oc3c(C)cccc3F)[C@](C)(O)C[C@@H](C)CN[C@H](C)[C@@H](O)[C@](C)(O)[C@@H](CC)OC(=O)[C@@H]2C)C[C@@]1(C)OC [Example B-110] | 154 | 18 | 75 |  |
| CC[C@H]1OC(=O)[C@H](C)[C@@H](O[C@H]2C[C@@](C)(OC)[C@](O)(CNc3ccc(OC)cc3)[C@H](C)O2)[C@H](C)[C@@H](O[C@@H]2O[C@H](C)C[C@H](N(C)S(N)(=O)=O)[C@H]2O)[C@](C)(O)C[C@@H](C)CN[C@H](C)[C@@H](O)[C@]1(C)O [Example B-125] | 34 | 16 | 88 |  |
| CCCNC[C@]1(O)[C@H](C)O[C@@H](O[C@H]2[C@H](C)[C@@H](O[C@@H]3O[C@H](C)C[C@H](N(C)S(=O)(=O)c4ccc(F)cc4)[C@H]3Oc3ccc(F)cc3)[C@](C)(O)C[C@@H](C)CN[C@H](C)[C@@H](O)[C@](C)(O)[C@@H](CC)OC(=O)[C@@H]2C)C[C@@]1(C)OC [Example B-108] | 5 | 6 | 10 |  |
| CC[C@H]1OC(=O)[C@H](C)[C@@H](O[C@H]2C[C@@](C)(OC)[C@](O)(CN3CCN(C)CC3)[C@H](C)O2)[C@H](C)[C@@H](O[C@@H]2O[C@H](C)C[C@H](N(C)S(=O)(=O)c3ccc(Cl)cc3)[C@H]2O)[C@](C)(O)C[C@@H](C)CN[C@H](C)[C@@H](O)[C@]1(C)O [Example C-7] | 66 | 6 | 50 |  |
| CCCNC[C@]1(O)[C@H](C)O[C@@H](O[C@H]2[C@H](C)[C@@H](O[C@@H]3O[C@H](C)C[C@H](N(C)S(=O)(=O)c4ccccc4)[C@H]3Oc3ccc(F)cc3)[C@](C)(O)C[C@@H](C)CN[C@H](C)[C@@H](O)[C@](C)(O)[C@@H](CC)OC(=O)[C@@H]2C)C[C@@]1(C)OC [Example B-109] | 9 | 3 | 10 |  |
| CCCNC[C@]1(O)[C@H](C)O[C@@H](O[C@H]2[C@H](C)[C@@H](O[C@@H]3O[C@H](C)C[C@H](N(C)S(=O)(=O)c4nccn4C)[C@H]3Oc3ccccn3)[C@](C)(O)C[C@@H](C)CN[C@H](C)[C@@H](O)[C@](C)(O)[C@@H](CC)OC(=O)[C@@H]2C)C[C@@]1(C)OC [Example B-131] | 28 | 6 | 17 |  |
| CCCNC[C@]1(O)[C@H](C)O[C@@H](O[C@H]2[C@H](C)[C@@H](O[C@@H]3O[C@H](C)C[C@H](N(C)S(=O)(=O)N(C)C)[C@H]3O)[C@](C)(O)C[C@@H](C)CN[C@H](C)[C@@H](O)[C@](C)(O)[C@@H](CC)OC(=O)[C@@H]2C)C[C@@]1(C)OC [Example B-51] | 38 | 97 | 62 |  |
| CCCNC[C@]1(O)[C@H](C)O[C@@H](O[C@H]2[C@H](C)[C@@H](O[C@@H]3O[C@H](C)C[C@H](N(Cc4ccccc4)S(=O)(=O)c4ccc(OC)cc4)[C@H]3O)[C@](C)(O)C[C@@H](C)CN[C@H](C)[C@@H](O)[C@](C)(O)[C@@H](CC)OC(=O)[C@@H]2C)C[C@@]1(C)OC [Example B-144] | 9 | 2 | 10 |  |
